Measured values: ChEMBL document CHEMBL5584352, “Targeted Discovery of a Natural ortho-Quinone Methide Precursor and Green Generation of Its Oligomers” (J Nat Prod, 2024)
In brackets after ≈: the same amount, converted by molar mass. Activity calls are given as the source filed them. No cut-off for these calls is given here.

Legend:
Escherichia coli = assay: Antibacterial activity against Escherichia coli ATCC 0111 assessed as reduction in bacterial growth incubated for 24 hrs by two fold serial dilution method; assay type: functional, organism-based
Staphylococcus aureus = assay: Antibacterial activity against Staphylococcus aureus 209P assessed as reduction in bacterial growth incubated for 24 hrs by two fold serial dilution method; assay type: functional
HeLa = assay: Cytotoxicity against human HeLa cells assessed as reduction in cell viability incubated for 24 hrs by MTT assay; assay type: functional, cell-based

Row | MIC (Staphylococcus aureus) | SMILES | Activity (Escherichia coli) | Activity (Staphylococcus aureus) | Activity (HeLa) | IC50 (HeLa)
1 | – | Cc1c(C)c(C(=O)O)c(O)c(C)c1O | inactive | inactive | inactive | –
2 | – | CC(=O)[C@@H](C)c1cc(O)c(Cc2c(C)cc(O)cc2O)c(O)c1C=O | inactive | inactive | inactive | –
3 | 32 µg/mL (≈ 66.9 µM) | CC(=O)[C@@H](C)c1cc(O)c(Cc2c3cc(O)cc(O)c3c(O)c3c(=O)cc(C)oc23)c(O)c1C=O | inactive | – | – | 12.4 µM
4 | – | CC(=O)[C@@H](C)c1cc(O)c(Cc2c(O)cc(O)c3c(O)c4c(=O)cc(C)oc4cc23)c(O)c1C=O | inactive | inactive | inactive | –
5 | – | CC(=O)[C@@H](C)c1cc(O)c(CO)c(O)c1C=O | inactive | inactive | inactive | –
6 | – | CC(=O)[C@@H](C)c1cc(O)c(Cc2c(O)cc(O)c(Cc3c(O)cc([C@H](C)C(C)=O)c(C=O)c3O)c2C)c(O)c1C=O | inactive | inactive | inactive | –
7 | – | CC(=O)[C@@H](C)c1cc(O)c(C)c(O)c1C=O | inactive | inactive | inactive | –
8 | – | Cc1cc(=O)c2c(O)c3c(O)cc(O)cc3cc2o1 | inactive | inactive | inactive | –
9 | – | Cc1cc(O)c(C)c(O)c1C | inactive | inactive | inactive | –
10 | – | CC(=O)[C@@H](C)c1cc(O)c(Cc2c(C)c(C)c(O)c(C)c2O)c(O)c1C=O | inactive | inactive | inactive | –
